According to ChEMBL document CHEMBL1201862, “PubChem BioAssay data set” (2004):
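Exposure lasted 48 hours, with cells grown in 96-well plates and compounds tested at five concentrations. At the GI50, growth is halved.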 The source made the active and inactive calls. Cut-off read from the data, not from the text of the source: active = GI50 up to about 1.1 µM and inactive = higher.

Key:
Assay in all cases: growth of human tumour cells (NCI), 48 h
[1] = system: UO-31
[2] = system: MCF7
[3] = system: MDA-MB-435
[4] = system: K562
[5] = system: SW-620
[6] = system: HL-60
[7] = system: SNB-75
[8] = system: PC-3
[9] = system: SF-295
[10] = system: T47D
[11] = system: SK-MEL-5
[12] = system: OVCAR-4
[13] = system: OVCAR-5
[14] = system: NCI-H460
[15] = system: SK-OV-3
[16] = system: BT-549
[17] = system: NCI-H522
[18] = system: HOP-62
[19] = system: Malme-3M
[20] = system: SN12C

Row | Structure (SMILES) | GI50 [1] | GI50 [2] | GI50 [3] | GI50 [4] | GI50 [5] | GI50 [6] | GI50 [7] | GI50 [8] | GI50 [9] | GI50 [10] | GI50 [11] | GI50 [12] | GI50 [13] | GI50 [14] | GI50 [15] | GI50 [16] | GI50 [17] | GI50 [18] | GI50 [19] | GI50 [20]
1 | O=C1c2c(nc3ccccc3c2-c2ccccc2)CN1Nc1ccccn1 | 13.8 µM (inactive) | > 70 µM (inactive) | > 100 µM (inactive) | 83.4 µM (inactive) | > 100 µM (inactive) | 97.9 µM (inactive) | 34.7 µM (inactive) | > 89.7 µM (inactive) | 60.1 µM (inactive) | > 68.4 µM (inactive) | 74.5 µM (inactive) | > 80.7 µM (inactive) | > 100 µM (inactive) | 40.6 µM (inactive) | 98.2 µM (inactive) | > 79.1 µM (inactive) | > 78.3 µM (inactive) | 72.6 µM (inactive) | 78.3 µM (inactive) | 53.6 µM (inactive)
2 | CC(NC(=O)Cc1ccccc1)NC(=O)C(C)C(=O)Nc1ccccc1 (stereo unspecified) | 43.7 µM (inactive) | > 100 µM (inactive) | > 100 µM (inactive) | > 100 µM (inactive) | > 100 µM (inactive) | > 10 µM (inactive) | 24 µM (inactive) | > 100 µM (inactive) | > 100 µM (inactive) | > 100 µM (inactive) | > 100 µM (inactive) | > 100 µM (inactive) | > 100 µM (inactive) | > 100 µM (inactive) | 51.6 µM (inactive) | 43.5 µM (inactive) | 23.1 µM (inactive) | – | 16.1 µM (inactive) | 36.1 µM (inactive)
3 | CC(=O)Nc1cc2c(cc1O)CC[C@@H]1[C@@H]2CC[C@]2(C)[C@@H](O)CC[C@@H]12 | 21.5 µM (inactive) | 28.6 µM (inactive) | 19.7 µM (inactive) | 23.5 µM (inactive) | 27.7 µM (inactive) | 29.6 µM (inactive) | – | 35.5 µM (inactive) | 31.3 µM (inactive) | 30.3 µM (inactive) | 22.4 µM (inactive) | > 100 µM (inactive) | 86.9 µM (inactive) | 34.8 µM (inactive) | > 100 µM (inactive) | 31.7 µM (inactive) | 20.8 µM (inactive) | 73.1 µM (inactive) | 21.8 µM (inactive) | –
4 | CC(=O)OC[C@@]12C[C@H]3C(=O)C(C)(C)C[C@H]3[C@]1(C)[C@@H](OC(C)=O)[C@]1(O)[C@H]([C@@H](OC(=O)c3ccccc3)[C@@H](C)[C@H]1OC(C)=O)[C@H]2OC(C)=O | > 20 µM (inactive) | > 20 µM (inactive) | > 20 µM (inactive) | 6.87 µM (inactive) | > 20 µM (inactive) | 4.92 µM (inactive) | > 20 µM (inactive) | > 20 µM (inactive) | 15.3 µM (inactive) | > 20 µM (inactive) | > 20 µM (inactive) | > 20 µM (inactive) | > 20 µM (inactive) | 6.19 µM (inactive) | > 20 µM (inactive) | > 20 µM (inactive) | > 20 µM (inactive) | > 20 µM (inactive) | – | > 20 µM (inactive)
5 | c1coc(C2=Nc3cccc4cccc(c34)N2)c1 | 16.2 µM (inactive) | 24.1 µM (inactive) | 50.8 µM (inactive) | 38.7 µM (inactive) | 38.6 µM (inactive) | 19.5 µM (inactive) | 65.5 µM (inactive) | 24.2 µM (inactive) | 34 µM (inactive) | 8.49 µM (inactive) | 34.9 µM (inactive) | 29.9 µM (inactive) | – | 34.8 µM (inactive) | 98.4 µM (inactive) | 44.5 µM (inactive) | 11.2 µM (inactive) | > 100 µM (inactive) | 93.8 µM (inactive) | 28.4 µM (inactive)
6 | CC1=CC[C@@H]2[C@@H](CC[C@@]2(C)O)C(C)(C)[C@H]1CC[C@@H]1[C@@]2(C)CCC(=O)C(C)(C)O[C@@H]2CC[C@]1(C)O | 22.5 µM (inactive) | 37.3 µM (inactive) | 30.7 µM (inactive) | – | 32.7 µM (inactive) | 16.9 µM (inactive) | 65.6 µM (inactive) | 29.4 µM (inactive) | 0.762 µM (active) | 43.5 µM (inactive) | 17.2 µM (inactive) | 39.1 µM (inactive) | 71 µM (inactive) | 17.7 µM (inactive) | 74.3 µM (inactive) | 19 µM (inactive) | 18.5 µM (inactive) | 32.9 µM (inactive) | – | 22.4 µM (inactive)
7 | CC(=O)c1nc2ccccc2n1CC(=O)c1ccc([N+](=O)[O-])cc1 | 14.9 µM (inactive) | 16.7 µM (inactive) | 22 µM (inactive) | 5.5 µM (inactive) | 10.6 µM (inactive) | 13.8 µM (inactive) | 35.3 µM (inactive) | 10.4 µM (inactive) | 17.7 µM (inactive) | 8.18 µM (inactive) | – | 34.8 µM (inactive) | – | 5.74 µM (inactive) | 31.2 µM (inactive) | 12.6 µM (inactive) | 2.93 µM (inactive) | 5.06 µM (inactive) | 11.6 µM (inactive) | 17.8 µM (inactive)
